Values after ≈ are worked out from the molar mass of the structure shown.

Assay [1] deals with Trichophyton mentagrophytes SM-110. The assay is described as follows: Antifungal activity evaluation test: minimum inhibitory concentration (MIC), broth dilution by reference to CLSI M38-A2. Particulars: SM110, read-out: MIC (T. menta.). The class given is cell-based. Summed up: (§1)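 MIC read visually as lowest concentration inhibiting growth by at least 80% relative to control after 4 days at 35° C. Trichophyton strains inoculated at 2×10^3 cells/mL final in MOPS-buffered RPMI 1640 (pH 7.0); compounds as 2-fold DMSO series, CLSI M38-A2 basis.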

Assay [2] relates to Trichophyton rubrum KD-1130. The description is as above. The class given is cell-based. To be noted: KD1130, read-out: MIC (T. rubrum). Summed up: as §1

Turning to `COc1c(Cl)cncc1-c1cccnc1Oc1ccc(C(C)(F)F)cc1` [I-300], the MIC in assay [1] and in assay [2] was at most 0.1 µg/mL each time.

Regarding `COc1ccccc1-c1cccnc1Oc1ccc2c(c1)CCCC2` [I-268, 3-(2-methoxyphenyl)-2-[(5,6,7,8-tetrahydronaphthalen-2-yl)oxy]pyridine], the MIC in assay [1] and in assay [2] was at most 0.1 µg/mL each time.

In the case of `FC(F)(F)Oc1ccccc1-c1cccnc1Oc1ccc(C(F)(F)F)nc1` [I-21, 3-(2-trifluoromethoxyphenyl)-2-{[6-(trifluoromethyl)pyridin-3-yl]oxy}pyridine], the MIC in assay [1] and in assay [2] was 0.2 to 0.78 µg/mL (≈ 0.5 to 1.95 µM) each time.

Regarding `COc1ncncc1-c1cccnc1Oc1ccc2c(c1)CCCC2` [I-271, 4′-methoxy-5-{2-[(5,6,7,8-tetrahydronaphthalen-2-yl)oxy]pyridin-3-yl}pyrimidine], the MIC in assay [1] and in assay [2] was at most 0.1 µg/mL each time.

Turning to `c1cnc(Oc2cnc3c(c2)CCC3)c(-c2cccc3c2OCC3)c1` [I-138, 3-{[3-(2,3-dihydrobenzofuran-7-yl)pyridin-2-yl]oxy}-6,7-dihydro-5H-cyclopenta[b]pyridine], the MIC in assay [1] and in assay [2] was at most 0.1 µg/mL in each case.

On to `Cc1cc(Oc2ncccc2-c2cccc3ccnn23)ccc1C(F)F` [I-462], for which the MIC in assay [1] and in assay [2] was at most 0.1 µg/mL each time.

Turning to `COc1ccccc1-c1cccnc1Oc1ccc(C2CC2)nc1` [I-128, 2-[(6-cyclopropylpyridin-3-yl)oxy]-3-(2-methoxyphenyl)pyridine], the MIC in assay [1] and in assay [2] was at most 0.1 µg/mL each time.

Take `C#CCOc1ccccc1-c1cccnc1Oc1ccc(C(F)(F)F)nc1` [I-56, 3-[2-(2-propyn-1-yloxy)phenyl]-2-{[6-(trifluoromethyl)pyridin-3-yl]oxy}pryidine]: the MIC in assay [1] and in assay [2] was 0.2 to 0.78 µg/mL (≈ 0.54 to 2.11 µM) in each case.

Regarding `FC(F)(F)c1ccc(Oc2ncncc2-c2cccc3c2OCC3)cn1` [I-327, 5-(2,3-dihydrobenzofuran-7-yl)-4-{[6-(trifluoromethyl)pyridin-3-yl]oxy}pyrimidine], the MIC in assay [1] and in assay [2] was at most 0.1 µg/mL in each case.

`COc1cc(F)ccc1-c1cccnc1Oc1ccc(C(F)(F)Cn2cccn2)nc1` [I-157, 2-{(6-[1,1-difluoro-2-(1H-pyrazol-1-yl)ethyl]pyridin-3-yl)oxy}-3-(4-fluoro-2-methoxyphenyl)pyridine]: the MIC in assay [1] and in assay [2] was at most 0.1 µg/mL each time.

With `COc1cc(F)ccc1-c1cccnc1Oc1cnc(N(C)C)nc1` [I-185, 5-{[3-(4-fluoro-2-methoxyphenyl)pyridin-2-yl]oxy}-N,N-dimethylpyrimidin-2-amine], the MIC in assay [1] and in assay [2] was at most 0.1 µg/mL throughout.

`COc1nccnc1-c1cccnc1Oc1ccc(C(F)(F)F)cc1` [I-218, 2-methoxy-3-{2-[4-(trifluoromethyl)phenoxy]pyridin-3-yl}pyrazine]: the MIC in assay [1] and in assay [2] was at most 0.1 µg/mL each time.

In the case of `COc1c(Cl)cncc1-c1cccnc1Oc1ccc(C(F)F)cc1` [I-355, 5′-chloro-2-[4-(difluoromethyl)phenoxy]-4′-methoxy-3,3′-bipyridine], the MIC in assay [1] and in assay [2] was at most 0.1 µg/mL each time.

In the case of `COc1ccccc1-c1cccnc1Oc1ccc(C(F)(F)CN(C)C(C)=O)nc1` [I-151, N-[2,2-difluoro-2-(5-{[3-(2-methoxyphenyl)pyridin-2-yl]oxy}-2-yl)-ethyl]-N-methylacetamide], the MIC in assay [1] and in assay [2] was 0.2 to 0.78 µg/mL (≈ 0.484 to 1.89 µM) throughout.

Take `FC(F)(F)c1ccc(Oc2ncccc2-c2cccc3cnccc23)cn1` [I-33, 5-(2-{[6-(trifluoromethyl)pyridin-3-yl]oxy}pyridin-3-yl)isoquinoline]: the MIC in assay [1] and in assay [2] was 1.56 to 6.25 µg/mL (≈ 4.25 to 17 µM) in each case.

`COc1cc(F)ccc1-c1cccnc1Oc1ccc(C(C)(F)F)nc1` [I-82]: the MIC in assay [1] and in assay [2] was at most 0.1 µg/mL each time.

Consider `COCC(F)(F)c1ccc(Oc2ncccc2-c2cccnc2OC)cn1` [I-348, 2-{[6-(1,1-difluoro-2-methoxyethyl)pyridin-3-yl]oxy}-2′-methoxy-3,3′-bipyridine], for which the MIC in assay [1] and in assay [2] was 0.2 to 0.78 µg/mL (≈ 0.536 to 2.09 µM) throughout.

Consider `COc1ncccc1-c1nccnc1Oc1ccc(OCc2ccccc2)cc1` [I-318, 2-[4-(benzyloxy)phenoxy]-3-(2-methoxypyridin-3-yl)pyrazine], for which the MIC in assay [1] and in assay [2] was at most 0.1 µg/mL throughout.

On to `COc1ncccc1-c1cccnc1Oc1ccc(CCc2nc(C)no2)cc1` [I-411], for which the MIC in assay [1] and in assay [2] was at most 0.1 µg/mL each time.

For the compound `COc1ccncc1-c1cccnc1Oc1ccc(C#C[Si](C)(C)C)cc1` [I-259, 4′-methoxy-2-{4-[(trimethylsilyl)ethynyl]phenoxy}-3,3′-bipyridine], the MIC in assay [1] and in assay [2] was 0.2 to 0.78 µg/mL (≈ 0.534 to 2.08 µM) in each case.

Take `COc1ccccc1-c1cccnc1Oc1ccc(C(C)(F)F)nc1` [I-81, 2-{[6-(1,1-difluoroethyl)pyridin-3-yl]oxy}-3-(2-methoxyphenyl)pyridine]: the MIC in assay [1] and in assay [2] was at most 0.1 µg/mL each time.

On to `Cc1nsc(C)c1-c1cccnc1Oc1ccc(C(C)(F)F)nc1` [I-101, 4-(2-{[6-(1,1-difluoroethyl)pyridin-3-yl]oxy}pyridin-3-yl)-3,5′-dimethylisothiazole], for which the MIC in assay [1] and in assay [2] was 0.2 to 0.78 µg/mL (≈ 0.576 to 2.25 µM) in each case.

As for `COc1ncccc1-c1cccnc1Oc1ccc(CCn2cccn2)cc1` [I-400, 2-{4-[2-(1H-pyrazol-1-yl)ethyl]phenoxy}-2′-methoxy-3,3′-bipyridine], the MIC in assay [1] and in assay [2] was at most 0.1 µg/mL in each case.

On to `COc1ccncc1-c1cccnc1Oc1ccc(C(=O)OC(C)C)cc1` [I-418], for which the MIC in assay [1] and in assay [2] was at most 0.1 µg/mL in each case.

As for `COCC(F)(F)c1ccc(Oc2ncccc2-c2cc(OC)c(F)cc2F)cn1` [I-165, 2-{[6-(1,1-difluoro-2-methoxyethyl)pyridin-3-yl]oxy}-3-(2,4-difluoro-5-methoxyphenyl)pyridine], the MIC in assay [1] and in assay [2] was at most 0.1 µg/mL each time.

With `COc1ncccc1-c1cccnc1Oc1ccc(C(F)(F)CO)cc1` [I-434], the MIC in assay [1] lay in the range of 0.2 to 0.78 µg/mL (≈ 0.558 to 2.18 µM); in assay [2], 1.56 to 6.25 µg/mL (≈ 4.35 to 17.4 µM).

Regarding `COc1ncccc1-c1cccnc1Oc1ccc(C(F)(F)CO)nc1` [I-347], the MIC in assay [1] and in assay [2] was 1.56 to 6.25 µg/mL (≈ 4.34 to 17.4 µM) throughout.

With `Cn1nccc1-c1cccnc1Oc1ccc(C(F)(F)F)cc1` [I-221, 3-(1-methyl-1H-pyrazol-5-yl)-2-[4-(trifluoromethyl)phenoxy]pyridine], the MIC in assay [1] and in assay [2] was 0.2 to 0.78 µg/mL (≈ 0.626 to 2.44 µM) each time.

In the case of `COc1ncccc1-c1cccnc1Oc1ccc2c(c1)CCC2` [I-270, 2-[(2,3-dihydro-1H-inden-5-yl)oxy]-2′-methoxy-3,3′-bipyridine], the MIC in assay [1] and in assay [2] was at most 0.1 µg/mL each time.

On to `COc1ccncc1-c1cccnc1Oc1ccc(SC(F)(F)F)cc1` [I-239, 4′-methoxy-2-{4-[(trifluoromethyl)thio]phenoxy}-3,3′-bipyridine], for which the MIC in assay [1] and in assay [2] was 0.2 to 0.78 µg/mL (≈ 0.529 to 2.06 µM) in each case.

Take `COc1cccc(-c2cccnc2Oc2ccc(C(F)(F)F)nc2)c1` [I-2, 3-(3-methoxyphenyl)-2-{[6-(trifluoromethyl)pyridin-3-yl]oxy}pyridine]: the MIC in assay [1] and in assay [2] was at most 0.1 µg/mL each time.

As to `FC(F)(F)c1ccc(Oc2ncccc2-c2cccc3c2OCCC3)cn1` [I-38, 3-(chroman-8-yl)-2-{[6-(trifluoromethyl)pyridin-3-yl]oxy}pyridine], the MIC in assay [1] and in assay [2] was at most 0.1 µg/mL throughout.

Take `Cc1ccncc1-c1cccnc1Oc1ccc(-c2ccccn2)cc1` [I-431]: the MIC in assay [1] and in assay [2] was at most 0.1 µg/mL throughout.

`CCc1ccc(Oc2ncccc2-c2cncc(C)c2OC)cc1` [I-286, 2-(4-ethylphenoxy)-4′-methoxy-5′-methyl-3,3′-bipyridine]: the minimum inhibitory concentration (MIC) in assay [1] and in assay [2] was at most 0.1 µg/mL each time.

On to `Fc1ccc(F)c(-c2cccnc2Oc2ccc(C(F)(F)F)nc2)c1` [I-7, 3-(2,5-difluorophenyl)-2-{[6-(trifluoromethyl)pyridin-3-yl]oxy}pyridine], for which the MIC in assay [1] and in assay [2] was at most 0.1 µg/mL throughout.

For `COc1ccccc1-c1cccnc1Cc1ccc(C(F)(F)F)cc1` [I-439, 3-(2-methoxyphenyl)-2-[4-(trifluoromethyl)benzyl]pyridine], the MIC in assay [1] and in assay [2] was 0.2 to 0.78 µg/mL (≈ 0.582 to 2.27 µM) each time.

Turning to `Cc1c(F)cncc1-c1cccnc1Oc1ccc(C(F)(F)F)cc1` [I-208], the MIC in assay [1] and in assay [2] was at most 0.1 µg/mL throughout.

`CC(F)(F)c1ccc(Oc2ncccc2-c2ccnc3ccccc23)cn1` [I-108, 4-(2-{[6-(1,1-difluoroethyl)pyridin-3-yl]oxy}pyridin-3-yl)quinoline]: the MIC in assay [1] was at most 0.1 µg/mL; in assay [2] it was 0.2 to 0.78 µg/mL (≈ 0.55 to 2.15 µM).

`COc1ccccc1-c1cccnc1Oc1ccc(C(F)(F)CO)nc1` [I-79, 2,2-difluoro-2-(5-{[3-(2-methoxyphenyl)pyridin-2-yl]oxy}pyridin-2-yl)ethanol]: the values for the MIC in assay [1] and in assay [2] were 0.2 to 0.78 µg/mL (≈ 0.558 to 2.18 µM) and 1.56 to 6.25 µg/mL (≈ 4.35 to 17.4 µM), respectively.

In the case of `COc1cc(F)ccc1-c1cccnc1Oc1cnc(C2(C)CC2)nc1` [I-379, 5-{[3-(4-fluoro-2-methoxyphenyl)pyridin-2-yl]oxy}-2-(1-methylcyclopropyl)pyrimidine], the MIC in assay [1] and in assay [2] was at most 0.1 µg/mL each time.

On to `CC(=O)c1ccccc1-c1cccnc1Oc1ccc(C(F)(F)F)nc1` [I-19, 1-[2-(2-{[6-(trifluoromethyl)pyridin-3-yl]oxy}pyridin-3-yl)phenyl]ethanone], for which the MIC in assay [1] and in assay [2] was 1.56 to 6.25 µg/mL (≈ 4.35 to 17.4 µM) in each case.

Regarding `COc1ccncc1-c1cccnc1Oc1ccc(C2CC2)nc1` [I-133, 2-[(6-cyclopropylpyridin-3-yl)oxy]-4′-methoxy-3,3′-bipyridine], the MIC in assay [1] and in assay [2] was 1.56 to 6.25 µg/mL (≈ 4.88 to 19.6 µM) throughout.

Source of the values: patent US10647675B2 (priority 2015, dated 2020).
